Test results as given in patent publication US9359409B2, “Antimicrobial peptides, compositions comprising the same and uses thereof” (priority 2012, dated 2016).
Ends that are not written are not given here.

How the values were obtained:
Staphylococcus aureus = experiment: MIC by broth microdilution; assay type: cell-based
Procedure: (§1) The 5 designed and synthesized peptides of the invention, plus omiganan (peptide of the state of the art) were evaluated for their antimicrobial capacity in microdilution assays for determining the minimum inhibitory concentration (MIC). A first panel of 8 representative strains was analyzed in these assays, encompassing Gram positive and Gram negative bacteria. […] The lowest MIC values indicate a higher antimicrobial potency.
(§2) Subsequently, an analysis of a panel of clinical isolates including strains with different resistance mechanisms against conventional antibiotics was carried out, all of which are of clinical relevance. […] In Table 3 the results for a panel of Gram negative bacteria are shown, and in Table 4 for a panel of […] bacteria. In these tables the detected gene/s responsible for the resistance against antibiotics for each strain, are included.
(§3) Antimicrobial activity was analyzed by means of the determination of the MIC (minimum inhibitory concentration) by the microdilution technique. The technique was carried out in the standard fashion according to (CLSI M07-A9 Vol. 32 No 2. January 2012). The peptide concentration range used was from 0.5 μg/mL to 512 μg/mL in two-fold serial dilutions. The used medium was MH Difco broth supplemented with cations, at a final concentration of Ca^++20-25 mg/L and Mg^++10-12.5 mg/L. The working inoculum used corresponds to a 1/100 dilution of a bacterial suspension equivalent to 0.5 in the Mc Farland scale.

Pseudomonas aeruginosa = experiment: MIC by broth microdilution; assay type: cell-based
Procedure: as §1, §2, §3

Substance: ILRWPWWPWRRK-NH2 [Omiganan, ILRWPWWPWRRK, reference compound]
- MIC (Staphylococcus aureus; S. aureus 28, resistance gene ermA): 32 µg/mL
- MIC (Staphylococcus aureus; S. aureus 33, resistance gene msrA): 32 µg/mL
- MIC (Staphylococcus aureus; S. aureus 204, resistance gene ermA): 64 µg/mL
- MIC (Staphylococcus aureus; S. aureus 239, resistance gene ermC): 32 µg/mL
- MIC (Staphylococcus aureus; S. aureus M2832, resistance gene mecA): 64 µg/mL
- MIC (Staphylococcus aureus; S. aureus M4046, resistance gene mecA): 32 µg/mL
- MIC (Staphylococcus aureus; S. aureus M6276, resistance gene ermA + lnuA): 32 µg/mL
- MIC (Staphylococcus aureus; S. aureus M6784, resistance gene mecA): 32 µg/mL
- MIC (Staphylococcus aureus; S. aureus M6820, resistance gene mecA): 128 µg/mL
- MIC (Pseudomonas aeruginosa; P. aeruginosa M5109, resistance gene vim): 256 µg/mL
- MIC (Pseudomonas aeruginosa; P. aeruginosa M7723, resistance gene kpc): 256 µg/mL
- MIC (Pseudomonas aeruginosa; P. aeruginosa M7907, resistance gene per): 128 µg/mL
- MIC (Pseudomonas aeruginosa; P. aeruginosa M13513, resistance gene kpc): 256 µg/mL
